This is an account of results in ChEMBL document CHEMBL1126695, “Orally active water-soluble N,O-acyl transfer products of a beta,gamma-bishydroxyl amide containing renin inhibitor” (J Med Chem, 1993).

Values after ≈ are worked out from the molar mass of the structure shown.

What all share (type): ADME
A short description of data set [1]: Evaluated for the solubility in water at 5.8 pH of filtered solution. Conditions: pH 5.8, read-out: S.
Data set [2] can be described thus: Evaluated for the solubility in 0.10 N HCl at 1.5 pH of filtered solution. The note with it: pH 1.5, read-out: S.
Data set [3] in a line: Evaluated for the solubility in water at 3.3 pH of filtered solution. The note with it: pH 3.3, read-out: S.
Data set [4] is described as follows: Evaluated the half life period in distilled water at room temperature.
Data set [5] can be described thus: Evaluated the half life period in CH3CN / buffer, pH 7.4 at 37 degree C.
The nature of data set [6]: Evaluated for the solubility in 0.10 N HCl at 1.6 pH of filtered solution. Conditions: pH 1.6, read-out: S.
The nature of data set [7]: Evaluated for the solubility in pH 7.4 buffer suspended at 5 mg / mL at 7.4 pH of filtered solution.
Data set [8] is described as follows: Evaluated for the solubility in water at 4.8 pH of filtered solution. Conditions: pH 4.8, read-out: S.
Data set [9] is described as follows: Evaluated for the solubility in pH 6.0 buffer suspended at 5 mg / mL at 6.0 pH of filtered solution.
A short description of data set [10]: Evaluated for the solubility in water at 3.2 pH of filtered solution. Conditions: pH 3.2, read-out: S.
A short description of data set [11]: Evaluated for the solubility in 0.10 N HCl at 1.7 pH of filtered solution. Conditions: pH 1.7, read-out: S.

A word on the half-life: it is the time needed for the level to fall by half in the phase considered. A high value points to slow loss.

Regarding `CC(C)C[C@H](O)C(O)[C@H](CC1CCCCC1)NC(=O)[C@H](Cc1csc(N)n1)NC(=O)[C@H](Cc1ccccc1)NS(=O)(=O)N1CCOCC1` (stereo partly drawn), in data set [1], the solubility is 2 µg/mL (≈ 2.82 µM).
Turning to `CC(C)C[C@H](O)C(OC(=O)[C@H](Cc1csc(N)n1)NC(=O)[C@H](Cc1ccccc1)NS(=O)(=O)N1CCOCC1)[C@@H](N)CC1CCCCC1.Cl` (stereo partly drawn), the solubility worked out at 54600 µg/mL in [2] and 17600 µg/mL in [3].
Take `CC(C)C[C@H](O)C(OC(=O)[C@H](Cc1csc(N)n1)NC(=O)[C@H](Cc1ccccc1)NS(=O)(=O)N1CCOCC1)[C@@H](N)CC1CCCCC1` (stereo partly drawn): the half-life is more than 96 h in [4] and 1 min in data set [5].
For `CC(C)C[C@H](O)C(O)[C@H](CC1CCCCC1)NC(=O)[C@H](Cc1csc(N)n1)NC(=O)[C@H](Cc1ccccc1)NS(=O)(=O)N1CCOCC1.Cl` (stereo partly drawn), the solubility worked out at 6600 µg/mL in data set [6], 1 µg/mL in data set [7], 20 µg/mL in [8] and 1 µg/mL in [9].
With `CC(C)C[C@H](OC(=O)[C@H](Cc1csc(N)n1)NC(=O)[C@H](Cc1ccccc1)NS(=O)(=O)N1CCOCC1)C(O)[C@@H](N)CC1CCCCC1.Cl` (stereo partly drawn), the solubility is 300 µg/mL in data set [7], 20900 µg/mL in [10], 1940 µg/mL in [9] and 71300 µg/mL in [11].
